Test results taken from ChEMBL document CHEMBL1201862, “PubChem BioAssay data set” (2004).
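Each compound was tested at five concentrations against cells in 96-well plates for 48 hours. Here, GI50 denotes the concentration required for 50% inhibition of growth.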 Calls of active or inactive are those of the source. Cut-off read from the data, not from the text of the source: active = GI50 up to about 1.1 µM and inactive = higher.

What was measured:
Assay in all cases: NCI tumour cell line growth inhibition, 48 h
SW-620 = test system: SW-620
UO-31 = test system: UO-31
ACHN = test system: ACHN
A498 = test system: A498
T47D = test system: T47D
RPMI-8226 = test system: RPMI-8226
RXF 393 = test system: RXF 393
786-0 = test system: 786-0
HOP-92 = test system: HOP-92
TK-10 = test system: TK-10
MDA-N = test system: MDA-N
K562 = test system: K562
SF-539 = test system: SF-539
LOX IMVI = test system: LOX IMVI
HCT-15 = test system: HCT-15
SNB-75 = test system: SNB-75
OVCAR-4 = test system: OVCAR-4
SK-MEL-5 = test system: SK-MEL-5
U-251 = test system: U-251
SF-295 = test system: SF-295
NCI-H226 = test system: NCI-H226
A549 = test system: A549
SK-MEL-2 = test system: SK-MEL-2
BT-549 = test system: BT-549
CCRF-CEM = test system: CCRF-CEM
IGROV-1 = test system: IGROV-1
UACC-257 = test system: UACC-257
HCT-116 = test system: HCT-116
HOP-62 = test system: HOP-62
OVCAR-5 = test system: OVCAR-5
HL-60 = test system: HL-60
NCI/ADR-RES = test system: NCI/ADR-RES
KM12 = test system: KM12
NCI-H460 = test system: NCI-H460
DU-145 = test system: DU-145
Malme-3M = test system: Malme-3M
MDA-MB-231 = test system: MDA-MB-231
SF-268 = test system: SF-268
Hs-578T = test system: Hs-578T
CAKI-1 = test system: CAKI-1
EKVX = test system: EKVX
HCC 2998 = test system: HCC 2998
NCI-H23 = test system: NCI-H23
MOLT-4 = test system: MOLT-4
SNB-19 = test system: SNB-19
HT-29 = test system: HT-29
OVCAR-3 = test system: OVCAR-3
OVCAR-8 = test system: OVCAR-8
SR = test system: SR
SK-MEL-28 = test system: SK-MEL-28
COLO 205 = test system: COLO 205
MDA-MB-435 = test system: MDA-MB-435
SK-OV-3 = test system: SK-OV-3
UACC-62 = test system: UACC-62
PC-3 = test system: PC-3
MCF7 = test system: MCF7
SN12C = test system: SN12C
M14 = test system: M14
NCI-H522 = test system: NCI-H522

COC1=CC(=O)c2c(cc(COP(N)(=O)N(CCCl)CCCl)n2C)C1=O (centres undefined) was tested, and the GI50 (SW-620) was 158 nM (active), the GI50 (UO-31) was 557 nM (active) and the GI50 (ACHN) was < 18.3 nM (active). The GI50 (A498) was 2200 nM (inactive), the GI50 (T47D) was < 48.6 nM (active) and the GI50 (RPMI-8226) was 1370 nM (inactive). The GI50 (RXF 393) was 457 nM (active), the GI50 (786-0) was 27.7 nM (active) and the GI50 (HOP-92) was 1410 nM (inactive). For the same molecule, the GI50 (TK-10) was 1670 nM (inactive), the GI50 (MDA-N) was 1610 nM (inactive) and the GI50 (K562) was 1520 nM (inactive). The GI50 (SF-539) was 78.5 nM (active), the GI50 (LOX IMVI) was 28.4 nM (active) and the GI50 (HCT-15) was 1130 nM. For the same molecule, the GI50 (SNB-75) was 955 nM (active), the GI50 (OVCAR-4) was 3520 nM (inactive) and the GI50 (SK-MEL-5) was 1360 nM (inactive). The GI50 (U-251) was 82.2 nM (active), the GI50 (SF-295) was 189 nM (active) and the GI50 (NCI-H226) was 140 nM (active). For the same molecule, the GI50 (A549) was 918 nM (active), the GI50 (SK-MEL-2) was 1840 nM (inactive) and the GI50 (BT-549) was 471 nM (active). For the same molecule, the GI50 (CCRF-CEM) was < 25.6 nM (active), the GI50 (IGROV-1) was 170 nM (active) and the GI50 (UACC-257) was 3280 nM (inactive). The GI50 (HCT-116) was 122 nM (active), the GI50 (HOP-62) was 2180 nM (inactive) and the GI50 (OVCAR-5) was 1260 nM (inactive). For the same molecule, the GI50 (HL-60) was 302 nM (active), the GI50 (NCI/ADR-RES) was 3290 nM (inactive) and the GI50 (KM12) was 1490 nM (inactive). The GI50 (NCI-H460) was 123 nM (active), the GI50 (DU-145) was 1750 nM (inactive) and the GI50 (Malme-3M) was 1400 nM (inactive). The GI50 (MDA-MB-231) was 2330 nM (inactive), the GI50 (SF-268) was < 32 nM (active) and the GI50 (Hs-578T) was 8260 nM (inactive). The GI50 (CAKI-1) was < 15.8 nM (active), the GI50 (EKVX) was 676 nM (active) and the GI50 (HCC 2998) was 446 nM (active). For the same molecule, the GI50 (NCI-H23) was 700 nM (active), the GI50 (MOLT-4) was 14.1 nM (active) and the GI50 (SNB-19) was 2640 nM (inactive). The GI50 (HT-29) was 186 nM (active), the GI50 (OVCAR-3) was 342 nM (active) and the GI50 (OVCAR-8) was 433 nM (active). For the same molecule, the GI50 (SR) was 60.3 nM (active), the GI50 (SK-MEL-28) was 2900 nM (inactive) and the GI50 (COLO 205) was 1390 nM (inactive). The GI50 (MDA-MB-435) was 1610 nM (inactive), the GI50 (SK-OV-3) was 1020 nM (active) and the GI50 (UACC-62) was 721 nM (active). The GI50 (PC-3) was 1490 nM (inactive), the GI50 (MCF7) was 76.7 nM (active) and the GI50 (SN12C) was < 24.1 nM (active). The GI50 (M14) was 826 nM (active) and the GI50 (NCI-H522) was 74.6 nM (active).
